Experimental data taken from article PMC10134273 (Cancer Medicine, 2023).
Read-outs that look alike come from different tables or passages of the source.

Tests used:
[1] = Phase 1 plasma pharmacokinetics of EVER4010001; format: in vivo, human
Text: (§1) After a screening period of up to 28 days, eligible patients received treatment according to a standard “3+3” dose escalation design. […] Treatment continued until unacceptable toxicity, progressive disease, and/or at the discretion of the Investigator or patient's withdrawal of consent.

[2] = DLT observation / MTD and RP2D determination (3+3 dose escalation); format: in vivo
Text: as §1

[3] = Description: (§2) Secondary endpoints included PK parameters (e.g., maximum observed concentration [C max] and area under the concentration‐time curve [AUC]). Secondary endpoints included objective response rate (ORR), disease control rate (DCR), and duration of response (DOR) as assessed by investigator per RECIST v1.1. Tumor responses were assessed according to RECIST v1.1; computerized tomography scanning or magnetic resonance imaging was performed every 6 weeks in the first 48 weeks, and every 12 weeks thereafter. Secondary endpoints also included safety and tolerability (adverse events [AEs] as defined by the National Cancer Institute‐Common Terminology Criteria for Adverse Events CTCAE v5.0) and exploratory biomarkers (total bile acids, 7‐α‐hydroxy‐4‐cholesten‐3‐one [C4] and circulating FGF19). Safety follow‐up visit was performed within 30 days (±5 days) and 90 days (±7 days) after the last dose of the study treatment.
All patients who received at least one dose of the study treatment in the Phase 1 part of the study were included in the safety and efficacy analyses. Dose escalation and MTD assessment were primarily based on DLTs which occurred within the 28‐day observation period. Descriptive statistics were used for demographics, safety, and efficacy data. The number of patients who experienced DLTs (within and outside of the 28‐day DLT assessment period) was tabulated for each dose level. The sample size of patients required for dose escalation were determined based on the ‘3+3’ design and DLTs observed as the trial progressed.

[4] = system: FGFR4 pathway; assay: Exploratory biomarkers (total bile acids, C4, circulating FGF19); format: in vivo, human
Description: as §2

[5] = system: FGFR4; parameters: method as in PMID 32930584; settings: kinase biochemical assays; read-out: half-maximal inhibitory concentration (IC50); cited from earlier work
[6] = system: HCC or solid tumors with positive FGFR4 and KLB expression; settings: cited from earlier work
[7] = system: triple positive HCC tumors; settings: cited from earlier work
[8] = system: all other kinases (including FGFR1, FGFR2, and FGFR3); settings: versus FGFR4; cited from earlier work
[9] = Cycle 1, Day 1, 40 mg BID (N=3) + pembrolizumab
[10] = Cycle 1, Day 1, 60 mg BID (N=3) + pembrolizumab
[11] = Cycle 1, Day 1, 80 mg BID (N=6) + pembrolizumab
[12] = Cycle 1, Day 1, 100 mg BID (N=7) + pembrolizumab
[13] = Cycle 1, Day 8, 40 mg BID (N=3) + pembrolizumab
[14] = Cycle 1, Day 8, 60 mg BID (N=3) + pembrolizumab
[15] = Cycle 1, Day 8, 80 mg BID (N=6) + pembrolizumab
[16] = Cycle 1, Day 8, 100 mg BID (N=7) + pembrolizumab
[17] = 40 mg BID (N=3) + pembrolizumab
[18] = 60 mg BID (N=3) + pembrolizumab
[19] = 80 mg BID (N=6) + pembrolizumab
[20] = 100 mg BID (N=7) + pembrolizumab
[21] = most patients treated with 40, 60, 80, and 100 mg
[22] = CFGF401X2101 trial, Grade ≥3 TEAE

## COCCNc1cc(NC(=O)N2CCCc3cc(CN4CCN(C)CC4=O)c(C=O)nc32)ncc1C#N [EVER4010001, roblitinib]
[1]; [9]
  Geometric mean AUC0–t (geometric CV%): […]
  Mean t1/2 (SD): […]
  Median tmax (Min, Max): […]
[1]; [10]
  Geometric mean AUC0–t (geometric CV%): […]
  Mean t1/2 (SD): […]
  Median tmax (Min, Max): […]
[1]; [11]
  Geometric mean AUC0–t (geometric CV%): […]
  Mean t1/2 (SD): […]
  Median tmax (Min, Max): […]
[1]; [12]
  Mean t1/2 (SD): 4.22 (0.69) Hour
[1]; [13]
  Geometric mean AUC0–t (geometric CV%): […]
  Mean Rac, drug accumulation ratio (SD): […]
  Mean t1/2 (SD): […]
  Median tmax (Min, Max): […]
[1]; [14]
  Geometric mean AUC0–t (geometric CV%): 3212.66 (27.61) Hour·ng/ml
[1]; [15]
  Mean t1/2 (SD): 4.12 (0.90) Hour
[1]; [16]
  Geometric mean AUC0–t (geometric CV%): […]
  Mean Rac, drug accumulation ratio (SD): […]
  Mean t1/2 (SD): […]
  Median tmax (Min, Max): […]
[1]; Cycle 1 Day 8 vs Cycle 1 Day 1
  accumulation ratio (Rac): […]
[1]; after repeated BID dosing, based on T1/2
  steady state reached: […]
[1]; human, plasma, oral, Cycle 1, Day 1, 40 mg BID (N=3) + pembrolizumab, read-out: Geometric mean Cmax (geometric CV%)
  Cmax: […]
[1]; human, plasma, oral, Cycle 1, Day 1, 60 mg BID (N=3) + pembrolizumab, read-out: Geometric mean Cmax (geometric CV%)
  Cmax: […]
[1]; human, plasma, oral, Cycle 1, Day 1, 80 mg BID (N=6) + pembrolizumab, read-out: Geometric mean Cmax (geometric CV%)
  Cmax: 897 ng/mL
[1]; human, plasma, oral, Cycle 1, Day 1, 100 mg BID (N=7) + pembrolizumab, read-out: Geometric mean Cmax (geometric CV%)
  Cmax: […]
[1]; human, plasma, oral, Cycle 1, Day 8, 40 mg BID (N=3) + pembrolizumab, read-out: Geometric mean Cmax (geometric CV%)
  Cmax: […]
[1]; human, plasma, oral, Cycle 1, Day 8, 60 mg BID (N=3) + pembrolizumab, read-out: Geometric mean Cmax (geometric CV%)
  Cmax: 749 ng/mL
[1]; human, plasma, oral, Cycle 1, Day 8, 80 mg BID (N=6) + pembrolizumab, read-out: Geometric mean Cmax (geometric CV%)
  Cmax: […]
[1]; human, plasma, oral, Cycle 1, Day 8, 100 mg BID (N=7) + pembrolizumab, read-out: Geometric mean Cmax (geometric CV%)
  Cmax: […]
[1]; human, plasma, oral, Cycle 1 Day 1, range across dose levels, read-out: geometric mean AUC0–t
  AUC(0-t): […]
[1]; human, plasma, oral, Cycle 1 Day 1, range across dose levels, read-out: geometric mean Cmax
  Cmax: […]
[1]; human, plasma, oral, range across 40-100 mg BID dose levels (abstract), read-out: AUC0–t
  AUC(0-t): […]
[1]; human, plasma, oral, range across 40-100 mg BID dose levels (abstract), read-out: maximum observed concentration (Cmax)
  Cmax: 606 to 1350 ng/mL
[1]; human, plasma, oral, range across 40-100 mg BID dose levels, read-out: Mean plasma terminal half-life (T1/2)
  half-life: […]
[1]; human, plasma, oral, range across 40-100 mg BID dose levels, read-out: Median time to peak concentration (Tmax)
  Tmax: […]
[2]; human, in vivo
  DLTs during whole study: Alanine aminotransferase increased: […]
  DLTs during whole study: Aspartate aminotransferase increased: […]
  Total DLTs during whole study: […]
[2]; human, in vivo, 28 days
  DLTs within 28 days: Alanine aminotransferase increased: […]
  DLTs within 28 days: Aspartate aminotransferase increased: […]
  Total DLTs within 28 days: […]
[2]; in combination with pembrolizumab 200 mg Q3W
  maximum tolerated dose (MTD): […]
[3]; [17]
  Grade 5 TEAEs related to EVER4010001 and/or pembrolizumab: 0 n (%)
  SAEs: Death: 0 n (%)
[3]; [18]
  Grade 5 TEAEs related to EVER4010001 and/or pembrolizumab: 0 n (%)
[3]; [19]
  Grade 5 TEAEs related to EVER4010001 and/or pembrolizumab: 0 n (%)
  SAEs: Death: 0 n (%)
[3]; [20]
  Grade 5 TEAEs related to EVER4010001 and/or pembrolizumab: 0 n (%)
  SAEs: Death: 0 n (%)
[3]; Total (N=19)
  Grade 5 TEAEs related to EVER4010001 and/or pembrolizumab: 0 n (%)
[3]; human, in vivo
  Any TEAE: Alanine aminotransferase increased: 9 (47.4) n (%)
  Any TEAE: Anemia: 9 (47.4) n (%)
[3]; human, in vivo, 93.4 days
  Any TEAE: Anemia: 0 n (%)
[4]; all doses
  serum biomarkers (C4, total bile acid concentration, circulating FGF19) as indicator of pathway suppression: […]
[4]; [21]
  circulating FGF19: […]
  plasma C4 (7-α-hydroxy-4-cholesten-3-one): […]
  total bile acid concentration: […]
[5]
  IC50: […]
[6]; [22]
  increased ALT: […]
  increased AST: […]
[6]; CFGF401X2101 trial, any grade
  increased ALT: 43.8%
[6]; CFGF401X2101 trial
  diarrhea suspected to be related to the study drug: 69%
[6]; QD doses 50-150 mg, fasted or unfasted patients
  recommended Phase 2 dose (RP2D): […]
[6]; RP2D 120 mg FGF401 QD, CFGF401X2101 trial
  geometric mean Cmax (geometric coefficient of variation %): […]
[6]; in combination with spartalizumab 300 mg Q3W
  recommended Phase 2 dose (RP2D): […]
[7]
  antitumor effect in preclinical models: induced regression/stasis
[8]
  selectivity against all other kinases (including FGFR1, FGFR2, and FGFR3): […]
